According to patent US10381110B2, “Molecules” (University of Dundee, priority 2010, dated 2019):

Columns and labels:
Assay in all cases: Secondary radioligand binding assay (Ki)
[1] = target: T1, 5-HT2C (Homo sapiens, UniProt P28335)
T1 sequence (P28335 33-458): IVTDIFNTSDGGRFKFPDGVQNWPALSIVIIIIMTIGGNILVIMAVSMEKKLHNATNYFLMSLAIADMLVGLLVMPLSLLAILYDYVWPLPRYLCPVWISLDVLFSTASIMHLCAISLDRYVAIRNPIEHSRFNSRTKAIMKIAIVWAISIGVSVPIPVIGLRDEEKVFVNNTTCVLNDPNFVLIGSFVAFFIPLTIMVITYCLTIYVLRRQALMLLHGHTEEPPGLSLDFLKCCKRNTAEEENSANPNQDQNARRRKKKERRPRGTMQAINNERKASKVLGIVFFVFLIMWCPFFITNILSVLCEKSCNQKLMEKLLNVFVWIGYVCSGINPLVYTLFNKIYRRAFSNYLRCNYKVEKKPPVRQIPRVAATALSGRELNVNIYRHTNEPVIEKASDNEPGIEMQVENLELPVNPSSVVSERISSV
Method: (§1) Assay Buffer: Standard Binding Buffer (50 mM Tris-HCl, 10 mM MgCl2, 1 mM EDTA, pH 7.4)
(§2) Membrane Fraction Source: Transiently or stably transfected cell lines (e.g., HEK293, COS, CHO, NIH3T3)
(§3) Radioligand is diluted to five times the assay concentration (see Table 18) in Standard Binding Buffer. Typically, the assay concentration of radioligand is a value between one half the KD and the KD of a particular radioligand at its target. 50 μl aliquots of radioligand are dispensed into the wells of a 96-well plate containing 100 μl of Standard Binding Buffer. Then, duplicate 50 μl aliquots of the test and reference compound dilutions are added.
(§4) The 250 μl reactions are incubated at room temperature and shielded from light (to prevent photolysis of light-sensitive ligands) for 1.5 hours, then harvested by rapid filtration onto Whatman GF/B glass fiber filters pre-soaked with 0.3% polyethyleneimine using a 96-well Brandel harverster. Four rapid 500 μl washes are performed with chilled Standard Binding Buffer to reduce non-specific binding. Filters are placed in 6 ml scintillation tubes and allowed to dry overnight. […] The tubes are capped, labeled, and counted by liquid scintillation counting. […] The filter mats are dried, then scintillant is melted onto the filters and the radioactivity retained on the filters is counted in a Microbeta scintillation counter. […]

[2] = target: dopamine D5 (Homo sapiens, UniProt P21918); conditions: read-out: Experimental Receptor Binding Data-Ki D5; Table 25, GPCR panel
Method: as §3
The 250 μl reactions are incubated at room temperature and shielded from light (to prevent photolysis of light-sensitive ligands) for 1.5 hours, then harvested by rapid filtration onto Whatman GF/B glass fiber filters pre-soaked with 0.3% polyethyleneimine using a 96-well Brandel harverster. Four rapid 500 μl washes are performed with chilled Standard Binding Buffer to reduce non-specific binding. Filters are placed in 6 ml scintillation tubes and allowed to dry overnight. The next day, 4 ml of EcoScint scintillation cocktail (National Diagnostics) are added to each tube. The tubes are capped, labeled, and counted by liquid scintillation counting. […] The filter mats are dried, then scintillant is melted onto the filters and the radioactivity retained on the filters is counted in a Microbeta scintillation counter. […]

[3] = target: T2, 5-HT3 (Homo sapiens, UniProt P46098)
T2 sequence (P46098 24-478): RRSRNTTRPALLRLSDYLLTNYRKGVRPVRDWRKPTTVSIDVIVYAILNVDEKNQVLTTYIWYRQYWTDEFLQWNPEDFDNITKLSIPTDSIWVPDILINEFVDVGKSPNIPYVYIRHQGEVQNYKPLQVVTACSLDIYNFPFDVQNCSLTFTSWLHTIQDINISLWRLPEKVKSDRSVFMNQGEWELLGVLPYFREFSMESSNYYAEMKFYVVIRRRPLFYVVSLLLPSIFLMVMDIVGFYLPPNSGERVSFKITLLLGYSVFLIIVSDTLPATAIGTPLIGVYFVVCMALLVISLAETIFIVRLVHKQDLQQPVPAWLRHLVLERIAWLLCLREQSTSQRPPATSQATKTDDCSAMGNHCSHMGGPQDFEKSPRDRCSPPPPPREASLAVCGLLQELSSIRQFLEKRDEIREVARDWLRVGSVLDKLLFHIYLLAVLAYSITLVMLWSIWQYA
Method: as §1, §2, §3, §4

Sequence of dopamine D5 (P21918 whole entry): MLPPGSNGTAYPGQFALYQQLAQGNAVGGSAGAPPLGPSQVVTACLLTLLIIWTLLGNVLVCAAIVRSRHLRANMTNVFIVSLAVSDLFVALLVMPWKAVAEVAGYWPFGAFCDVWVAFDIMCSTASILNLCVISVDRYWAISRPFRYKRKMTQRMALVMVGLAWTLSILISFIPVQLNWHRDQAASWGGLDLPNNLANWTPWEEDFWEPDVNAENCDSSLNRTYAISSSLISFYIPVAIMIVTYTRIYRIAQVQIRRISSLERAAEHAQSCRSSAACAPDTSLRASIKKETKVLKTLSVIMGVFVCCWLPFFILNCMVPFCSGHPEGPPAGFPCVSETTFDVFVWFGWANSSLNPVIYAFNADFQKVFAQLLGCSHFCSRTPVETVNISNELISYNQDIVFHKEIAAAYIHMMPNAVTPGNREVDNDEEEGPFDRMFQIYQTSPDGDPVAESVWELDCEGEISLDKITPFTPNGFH

SMILES	Ki [1]	Ki [2]	Ki [3]
COc1cc2c(cc1OC)C(=O)N(CCCCN1CCN(c3ccccc3OC)CC1)C2 [GFR-VII-285]	3430 nM	1890 nM	–
CC1Cc2ccccc2N1C(=O)CN1CCN(Cc2ccccc2)CC1 (stereo not drawn) [STT-00185638, 2-[-4-(benzyl)-piperazin-1-yl]-1-(2-methy-2,3-dihydro-indol-1-yl)-ethanone]	–	–	2110 nM
